Experimental data as given in paper PMC4100786 (Biochemistry, 2014).

Target: ISWI (Xenopus laevis, UniProt Q9DF71)
Type: binding

Sequence of ISWI (Q9DF71 1-1046): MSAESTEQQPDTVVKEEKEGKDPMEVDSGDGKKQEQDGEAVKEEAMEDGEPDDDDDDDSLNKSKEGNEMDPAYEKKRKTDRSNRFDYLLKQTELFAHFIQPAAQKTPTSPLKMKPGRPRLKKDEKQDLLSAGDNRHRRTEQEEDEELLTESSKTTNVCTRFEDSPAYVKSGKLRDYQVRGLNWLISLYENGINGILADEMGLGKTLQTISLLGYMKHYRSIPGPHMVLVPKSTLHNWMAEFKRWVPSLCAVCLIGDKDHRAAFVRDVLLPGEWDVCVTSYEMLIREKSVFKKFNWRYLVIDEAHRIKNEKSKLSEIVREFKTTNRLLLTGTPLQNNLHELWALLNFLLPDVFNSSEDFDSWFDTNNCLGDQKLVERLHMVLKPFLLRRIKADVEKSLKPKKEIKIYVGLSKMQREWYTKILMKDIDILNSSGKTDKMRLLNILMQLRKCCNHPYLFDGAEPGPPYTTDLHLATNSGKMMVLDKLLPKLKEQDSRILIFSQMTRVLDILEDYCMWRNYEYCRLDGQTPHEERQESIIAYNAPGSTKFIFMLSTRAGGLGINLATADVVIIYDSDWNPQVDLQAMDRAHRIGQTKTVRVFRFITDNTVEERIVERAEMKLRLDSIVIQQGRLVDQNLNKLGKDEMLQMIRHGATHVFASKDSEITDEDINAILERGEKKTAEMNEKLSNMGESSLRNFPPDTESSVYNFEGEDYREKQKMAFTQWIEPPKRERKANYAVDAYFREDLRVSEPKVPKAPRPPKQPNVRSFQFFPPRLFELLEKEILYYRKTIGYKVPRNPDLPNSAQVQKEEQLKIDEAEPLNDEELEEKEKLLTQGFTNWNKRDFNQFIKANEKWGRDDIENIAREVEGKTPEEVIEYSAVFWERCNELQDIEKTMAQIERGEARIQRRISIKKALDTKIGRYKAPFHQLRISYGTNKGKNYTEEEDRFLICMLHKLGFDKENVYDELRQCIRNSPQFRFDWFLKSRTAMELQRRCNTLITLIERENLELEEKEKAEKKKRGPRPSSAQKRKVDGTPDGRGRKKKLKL

Kd: 140 ± 30 µM
Structure (SMILES): Nc1ncnc2c1ncn2[C@@H]1O[C@H](CO[P@](=O)(O)O[P@](=O)(O)O[P@@](=O)(O)S)[C@@H](O)[C@H]1O [ATP-γ-S]
